Calls of active or inactive are those of the source. No rule for the calls is given here.

This assay has as its target Sphingosine 1-phosphate receptor 4 (Homo sapiens) (UniProt O95977). In words: S1P4 receptor antagonists, late-stage follow-up, selectivity assay for S1PR3 antagonist project, cell-based, FRET, dose response (AID 743432). As to conditions: S1P4 cell line.

Sequence of Sphingosine 1-phosphate receptor 4 (Homo sapiens) (O95977 whole entry, looked up): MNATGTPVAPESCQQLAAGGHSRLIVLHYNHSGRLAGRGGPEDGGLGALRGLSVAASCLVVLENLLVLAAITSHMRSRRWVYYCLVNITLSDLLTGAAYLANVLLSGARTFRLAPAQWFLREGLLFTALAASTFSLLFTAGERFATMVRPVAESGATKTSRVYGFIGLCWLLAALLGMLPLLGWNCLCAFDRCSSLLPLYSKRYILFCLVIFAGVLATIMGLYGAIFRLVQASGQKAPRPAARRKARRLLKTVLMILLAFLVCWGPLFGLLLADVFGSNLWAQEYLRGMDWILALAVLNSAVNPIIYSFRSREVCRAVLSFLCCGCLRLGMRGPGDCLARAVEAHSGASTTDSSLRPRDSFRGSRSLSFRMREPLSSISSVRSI

For `Cc1ccc(C(=O)NC(c2ccccc2)c2nc(-c3ccccc3)no2)cc1` (stereo not given), the IC50 (as a rule, the concentration at which inhibition is half-maximal) was > 50 µM (inactive).

As for `Cc1ccc(C(NC(=O)c2cccc(Cl)c2)c2nc(-c3ccccc3)no2)cc1` (stereo not given), the IC50 is > 50 µM (inactive).

`O=C(NC(c1ccccc1)c1nc(-c2ccccc2)no1)c1cccc(Cl)n1` (stereo not given): the IC50 was > 50 µM (inactive).

On to `O=C(NC(c1ccc(Cl)cc1)c1nc(-c2cccc(Cl)c2)no1)c1cccc(Cl)c1` (stereo not given), for which the IC50 is > 50 µM (inactive).

Regarding `O=C(NC(c1nc(-c2ccccc2)no1)C1CCCCC1)c1ccc(Cl)c(Cl)c1` (stereo not given), the IC50 is > 50 µM (inactive).

For `O=C(NC(c1cccc(Cl)c1)c1nc(-c2ccccc2)no1)c1ccc(Cl)c(Cl)c1` (stereo not given), the IC50 was > 50 µM (inactive).

Consider `O=C(NC(c1ccccc1)c1nc(-c2ccccc2)no1)c1cccc(Cl)c1` (stereo not given), for which the IC50 was > 50 µM (inactive).

On to `O=C(c1cccc(Cl)c1)N(CCO)C(c1ccc(Cl)c(Cl)c1)c1nc(-c2ccccc2)no1` (stereo not given), for which the IC50 entry is “inactive”.

As for `O=C(NC(c1ccc(Cl)c(Cl)c1)c1nc(-c2ccccc2)no1)c1ccccc1` (stereo not given), the IC50 is > 50 µM (inactive).

As for `O=C(NC(c1ccc(Cl)cc1)c1nc(-c2ccccc2)no1)c1ccc(Cl)c(Cl)c1` (stereo not given), the IC50 is > 50 µM (inactive).

Take `O=C(NC(c1cccc(Cl)c1)c1nc(-c2ccccc2)no1)c1cc(Cl)cc(Cl)c1` (stereo not given): the IC50 was > 50 µM (inactive).

As to `O=C(NC(c1cccc(Cl)c1)c1nc(-c2ccccc2)no1)c1cccc(Cl)c1` (stereo not given), the half-maximal inhibitory concentration (IC50) was 5.2 µM.

With `O=C(NC(c1ccccc1)c1nc(-c2ccccc2)no1)c1cccc(Br)c1` (stereo not given), the IC50 is > 50 µM (inactive).

On to `O=C(NC(c1ccc(Cl)cc1)c1nc(-c2ccccn2)no1)c1cccc(Cl)c1` (stereo not given), for which the IC50 is > 50 µM (inactive).

As for `O=C(NC(c1ccc(Br)cc1)c1nc(-c2ccccc2)no1)c1ccc(Cl)c(Cl)c1` (stereo not given), the IC50 was > 50 µM (inactive).

`COc1ccc(C(=O)NC(c2ccccc2)c2nc(-c3ccccc3)no2)cc1` (stereo not given): the IC50 is > 50 µM (inactive).

As for `N#Cc1ccc(C(=O)NC(c2ccc(Cl)c(Cl)c2)c2nc(-c3ccccc3)no2)cc1` (stereo not given), the half-inhibitory concentration (IC50) is 3.1 µM.

In the case of `O=C(NC(c1ccc(Cl)c(Cl)c1)c1nc(-c2ccccc2)no1)c1ccc(Cl)c(Cl)c1` (stereo not given), the IC50 was > 50 µM (inactive).

Turning to `O=C(NC(c1ccc(Cl)cc1)c1nc(-c2ccccc2)no1)c1ccc(Cl)c(Br)c1` (stereo not given), the IC50 was > 50 µM (inactive).

In the case of `CCc1ccc(C(NC(=O)c2cccc(Cl)c2)c2nc(-c3ccccc3)no2)cc1` (stereo not given), the IC50 is > 50 µM (inactive).

The record behind these values is PubChem BioAssay AID743432 (The Scripps Research Institute Molecular Screening Center, 2014).
